Experimental data published in US9814758B2, “Inhibitors of apoptosis and uses thereof” (CENTRE NATIONAL DE LA RECHERCHE SCIENTIFIQUE-CNRS, priority 2010, dated 2017).
“Also recorded” adds a separate entry of the source. No end group written: not given here.

Legend:
primary cardiomyocytes = assay: STS-induced DNA fragmentation (Cell Death detection ELISA PLUS) in primary cardiomyocytes; format: cell-based, mouse; conditions: for ability to decrease cell apoptosis / protect the cells: against STS; for reduction of DNA fragmentation: peptide given together with staurosporine, 1 μM, related to STS-treated cells (=100%), FIG. 5B
Protocol: FIG. 5: In vitro evaluation of the anti-apoptotic activity of CPPs and CPP-conjugates. Workflow and quantitation of DNA fragmentation in (A) C2C12 cells, (B) primary cardiomyocytes, (C) H9c2 cells and (D) NG108-15 cells. Data were normalized to 100% STS. Data shown are the means±SEM, with n≧5. Cells were seeded in 24-well plates and grown overnight. The next day, the cells were incubated with STS alone or with STS+1 μM peptide (in OPTI-MEM) (OPTI-MEM® is a modification of Eagle's Minimum Essential Media, buffered with HEPES and sodium bicarbonate, and supplemented with hypoxanthine, thymidine, sodium pyruvate, L-glutamine, trace elements, and growth factors) (STS concentration and incubation time for each cells are given in the figure). Thereafter, solutions were removed, replaced by complete medium and further incubated for 40 h. Following the regeneration phase, the cells were lyzed and DNA fragmentation was detected according to manufacturer's instructions (Cell Death detection ELISA^PLUS kit—Roche Diagnostics).
FIG. 6: Anti-apoptotic activity of variants of the Tat-DAXXp sequence on primary cardiomyocytes. As described in the caption of FIG. 5, the different analogues of the DAXXp sequence (see Table 2) were assessed for anti-apoptotic properties against STS (Cell Death detection ELISA^PLUS kit—Roche Diagnostics) (A-B). None of the analogues were able to protect the primary cardiomyocytes—a fact which confirms that the 16mer DAXXp has the optimal length and sequence for highest cardioprotective effect.
FIG. 7: Comparison of the murine/rat DAXXp with the human DAXXp sequence in terms of anti-apoptotic activity on C2C12 cells, primary cardiomyocytes, and H9c2. The murine DAXXp sequence conjugated to Tat (Tat-mDAXXp—SEQ ID NO: 61) which is identical to the rat DAXXp sequence (see FIG. 1B), was compared to the human construct (Tat-DAXXp) in terms of anti-apoptotic properties against STS (Cell Death detection ELISA^PLUS kit—Roche Diagnostics). The C2C12 cells and the primary cardiomyocytes used were from mice and the H9c2 cells from rat.
FIG. 9: Comparison of FADDp constructs with Tat-DAXXp in terms of anti-apoptotic activity in primary cardiomyocytes and in H9c2 cells. Quantification of DNA normalized to 100% STS. Data shown are the means±SEM, with n≧5. Cells were seeded in 24-well plates and grown overnight. The next day, the cells were incubated with STS alone or with STS+1 μM peptide (in OPTI-MEM®) (OPTI-MEM® is a modification of Eagle's Minimum Essential Media, buffered with HEPES and sodium bicarbonate, and supplemented with hypoxanthine, thymidine, sodium pyruvate, L-glutamine, trace elements, and growth factors) (STS concentration is given in the figure and incubation time is given in FIG. 5). Thereafter, solutions were removed, replaced by complete medium and further incubated for 40 hours. Following the regeneration phase, the cells were lyzed and DNA fragmentation was detected according to manufacturer's instructions (Cell Death detection ELISA^PLUS kit—Roche Diagnostics).
FIG. 10: Comparison of Tat-DAXXp and Tat-FADDp15 alone and in combination in primary cardiomyocytes (A) and in H9c2 cells (B).
Thereafter, the capacity of these peptides to inhibit apoptosis induced by staurosporine was evaluated. Apoptosis was determined using the Cell Death detection ELISA^PLUS kit (Roche) measuring the DNA fragmentation.
In most publications, anti-apoptotic peptides currently available in the art are administrated 3-4 hours prior to apoptosis induction, which is poorly relevant to a clinical application. For that reason, the protocol used in the present study included administration of the peptides together with the staurosporine. […] This was not observed with CPP alone or with the Tat-scrDAXXp or Tat-ncDAXXp negative controls. […] To better compare the results, the DNA fragmentation (described by the enrichment factor) is related to the staurosporine-treated cells (=100%).

[1] = molecular target: T1, His-tagged intracellular region of Fas receptor (Homo sapiens, UniProt P25445); assay: SPOT peptide array, enzyme-linked blot with His-tagged Fas; format: binding; conditions: Fas 10 μg/ml, anti-His/anti-mouse-HRP
T1 construct: His-tagged intracellular region of Fas receptor [10 μg/ml]; purchased Sigma
T1 sequence (P25445 191-335 limits assumed): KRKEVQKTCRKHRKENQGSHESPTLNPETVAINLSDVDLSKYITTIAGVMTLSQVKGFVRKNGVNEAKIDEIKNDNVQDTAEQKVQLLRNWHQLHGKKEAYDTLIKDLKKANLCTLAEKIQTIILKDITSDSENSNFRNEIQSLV
Protocol: FIG. 1: Determination of the DAXX epitope by SPOT synthesis. (A) The amino acid sequence of DAXX was dissected in overlapping peptide arrays (pepscan; 15 mer peptides with a shift of 3 amino acids) and analyzed in enzyme-linked blot. […] Incubation conditions: His-tagged intracellular region of Fas receptor [10 μg/ml]; antibodies: anti-His-(mouse) (Sigma H1029; 1:6,000)/anti-mouse-HRP (Calbiochem 401207; 1:2,000), exposure time: 1 minute. (B) Alignment of the human DAXX sequence comprising the 16-mer KKSRKEKKQTGSGPLG (=DAXXp of SEQ ID NO: 5) with the DAXX sequences of other species (mouse, rat, dog (CANFA) and green monkey (CHLAE)).
FIG. 2: Determination of the optimal length of the DAXX epitope (=DAXXp) by SPOT synthesis. (A) The DAXXp-211 and DAXXp-209 peptides (of SEQ ID NO: 2 and SEQ ID NO: 3, respectively) were successively shortened by one amino acid residue at the N-terminus, at the C-terminus and both at the N- and the C-termini, and analyzed using enzyme-linked blot. […] Incubation conditions: His-tagged intracellular region of Fas receptor [10 μg/ml]; antibodies: anti-His-(mouse) (Sigma H1029; 1:6,000)/anti-mouse-HRP (Calbiochem 401207; 1:2,000), exposure time: 1 minute. (B) Alignment of both peptide sequences DAXXp-211 and DAXXp-209; corresponding to the brightest spots, to determine the optimal DAXX peptide sequence.
FIG. 8: Determination of FADDp15 and its anti-apoptotic effect in cardiomyocytes. (A) The protein sequences of FADD were dissected in overlapping peptide arrays (pepscan; 15 mer peptides with a shift of 3 amino acids) and analyzed using enzyme-linked blot. […] (B) The peptide sequence of FADDp-11 (=FADDp15=SEQ ID NO: 9) was successively shortened by one amino acid residue at the C-terminus, the N-terminus, or at both the C-terminus and the N-terminus, and analyzed using enzyme-linked blot. […] The shortest FADD epitope (a 9-mer with sequence KRKLERVQS (=FADDp=SEQ ID NO: 12)) corresponded to spot No. 24. Incubation conditions: His-tagged intracellular region of Fas receptor [10 μg/ml]; antibodies: anti-His-(mouse) (Sigma H1029; 1:6,000)/anti-mouse-HRP (Calbiochem 401207; 1:2,000), exposure time: 1 minute.
The peptides were synthesized on N-modified CAPE-membranes (Bhargava et al, Mol. Recognit, 2002, 15: 145) and prepared by a MultiPep SPOT-robot (INTAVIS Bioanalytical Instruments AG, Cologne, Germany). Array design was performed with the aid of the in-house software LISA 1.71. The synthesis started with spot definition using a standard protocol [Frank, Tetrahedron, 1992, 48: 9217), followed by the coupling of a solution of Fmoc-cysteine-(Trt)-Opfp (0.3M) in N-methylpyrolidone (NMP) and Fmoc-alanine-Opfp (double coupling, 15 min reaction each). After Fmoc cleavage with piperidine in DMF (20%), 4-hydroxymethylphenoxyacetic acid (HMPA) dissolved in dimethylformamide (DMF, 0.6M solution) and activated with EEDQ (1.1 equiv) was added, and samples were directly spotted on the membrane (4× coupling, 15 min reaction each). The membrane was acetylated with acetic anhydride in DMF (2%), washed with DMF (5×3 min), ethanol (2×3 min), and diethyl ether (2×3 min), and finally air dried. Solutions of Fmoc-amino acid-OH (0.4M) activated with 1,1′-carbonyldiimidazole (CDI, 3 equiv) in DMF were spotted on the membrane (4× coupling, 15 min reaction time each). Proline, tyrosine, and glutamine were activated with 1,1′-carbonyldi(1,2,4-triazole) (CDT). The Fmoc group was removed from the spots, and the peptide sequences were completed using the standard SPOT synthesis protocol (Frank, Tetrahedron, 1992, 48: 9217) followed by a N-terminal tag with β-alanine.
The primary sequence of the DAXX protein (SEQ ID NO: 1) was dissected in overlapping 15 mer peptides (3 amino acids shift) and all the peptides (243 peptides) were synthesized on cellulose membrane by SPOT synthesis as described above. The peptide library was incubated with the His-tagged intra-cellular region of the Fas receptor (Sigma). […]

[2] = system: C57Bl6 mice, myocardial ischemia-reperfusion; assay: Myocardial ischemia-reperfusion IR60' (40 min ischemia, 60 min reperfusion); format: in vivo, mouse; conditions: IR60'; data not shown
Protocol: FIG. 11: In vivo experimental protocol. C57Bl6 mice underwent a surgical protocol of myocardial ischemia-reperfusion (IR). The black box represents the period of ischemia to which the mice were submitted. Infarct size or cell death measurements were performed at the end of surgery for each protocol (indicated by ↑). IR60′: 40 minutes of Ischemia, 60 minutes of Reperfusion. IR24h: 40 minutes Ischemia and 24 hours Reperfusion.
FIG. 12: Cardioprotective effects of Tat-DAXXp (1 mg/kg—IV) in mice subjected to IR60′. Infarct size (in % of area at risk) and internucleosomal DNA fragmentation determined by ELISA were quantified in mice subjected to IR60′ and treated with Tat, Tat-DAXXp or Tat-scrDAXXp (1 mg/kg) as well as with DAXXp (10 mg/kg) (intravenous injection (IV) 5 minutes before reperfusion). Means±SEM were plotted for (A): Area at risk/LV mass (left ventricle), (B): Infarct size (in % of area at risk) and (C): (I/NI ratio) corresponding to the ratio of soluble nucleosome in the ischemic portion versus the non-ischemic portion of LV tissues. Statistical analysis was performed using One-way ANOVA with Neuman-Keuls post test for multiple comparisons (GraphPad Prism software). P<0.05, P<0.01 and P<0.001 versus Tat-DAXXp were noted *, **, and *** respectively. P=ns (not significant) for P>0.05.
FIG. 13: Dose response for Tat-DAXXp and DAXXp in mice subjected to IR60′. Infarct size (in % of area at risk) and internucleosomal DNA fragmentation determined by ELISA were quantified in mice subjected to IR60′ and treated with Tat (1 mg/kg), Tat-DAXXp (0.1, 1 and 10 mg/kg) or DAXXp (0.1, 1 and 10 mg/kg) injected intravenously 5 minutes before reperfusion. Means±SEM were plotted for (A): Area at risk/LV mass (left ventricle), (B): Infarct size (in % of area at risk) and (C): (I/NI ratio) corresponding to the ratio of soluble nucleosome in the ischemic versus the non-ischemic portion of LV tissues.
In a second step, the cardioprotective effects of DAXXp were evaluated in an in vivo model of myocardial ischemia-reperfusion. Acute myocardial ischemia and reperfusion were performed in C57Bl6 mice subjected to a surgical model of reversible coronary occlusion. Male mice (22-28 g) were anesthetized and ventilated via a tracheal intubation using a Harvard rodent respirator. Body temperature was maintained between 36.8° C. and 37.0° C. via a thermo-regulated surgical table. The chest was opened by left lateral thoracotomy and a reversible coronary artery snare occluder was placed around the left coronary artery. Mice were randomly allocated to two different surgical protocols of myocardial ischemia-reperfusion (FIG. 11). At the end of reperfusion, the artery was re-occluded and phtalocyanine blue dye was injected into the left ventricle cavity and allowed to perfuse the non-ischemic portions of the myocardium. To determine the effect of DAXXp on myocardial infarct size, peptides were administered intravenously (caudal vein) 5 minutes before reperfusion during the surgical protocol of ischemia-reperfusion. The control groups were treated with Tat or Pip2b peptide (for CPP alone). The dose of 1 mg/kg was chosen (μmolar range) and dose responses for 0.1 and 10 mg/kg were also tested.
At the end of reperfusion, mice were re-anaesthetized, the coronary ligature definitively tightened, the blue dye injected and the harvested left ventricles were dedicated to infarct size (TTC method, Schwartz et al, J Thromb. Thromb., 2000; 10: 181-187) or DNA fragmentation measurements (Cell death detection ELISA^PLUS kit, Roche Diagnostics) in order to investigate the cardioprotective effects against ischemia-reperfusion injuries.

Row | interaction with the Fas receptor / signal intensity of the spot [1] | interaction with the Fas receptor / signal intensity of the spot ([1]; listed as Spot No. 211) | Substance | ability to decrease cell apoptosis / protect the cells (primary cardiomyocytes) | reduction of DNA fragmentation (primary cardiomyocytes) | cardioprotection (infarct size, DNA fragmentation) [2]
1 | interact with the Fas receptor | highest signal intensity | KSRKEKKQTGSGPLG (listed as Homo sapiens) [DAXXp-15] | only DAXXp is capable of decreasing cell apoptosis |  | 
2 | interact with the Fas receptor |  | DAXXp-14: fragment of the DAXX protein, amino acid sequence set forth in SEQ ID NO: 6 (SRKEKKQTGSGPLG; listed as Homo sapiens) | only DAXXp is capable of decreasing cell apoptosis |  | 
3 | interact with the Fas receptor |  | KRKLERVQS (listed as Homo sapiens) [FADDp] | decrease cell apoptosis |  | 

More lines, now with the values behind:

Row | Substance | interaction with the Fas receptor / signal intensity of the spot [1] | interaction with the Fas receptor / signal intensity of the spot ([1]; listed as Spot No. 211) | ability to decrease cell apoptosis / protect the cells (primary cardiomyocytes) | reduction of DNA fragmentation (primary cardiomyocytes) | cardioprotection (infarct size, DNA fragmentation) [2]
4 | GRKKRRQRRRPPQ-AKLYVYINELCTVLK-NH2 [Tat-ncDAXXp] |  |  |  | not observed | 
5 | VGKRKLERVQSGLDL (listed as Homo sapiens) [FADDp15] | higher signal intensity; also recorded: interact with the Fas receptor |  | decrease cell apoptosis |  | 
6 | GRKKRRQRRRPPQ-KKGRKQSGESLGTPKK-NH2 (GRKKRRQRRRPPQKKGRKQSGESLGTPKK-NH2) [Tat-scrDAXXp, negative control; scrambled version of DAXXp conjugated to Tat] |  |  |  | not observed | not observed
